Reference: patent US20230250106A1, “COMPOUNDS AND COMPOSITIONS FOR TREATING CONDITIONS ASSOCIATED WITH STING ACTIVITY” (IFM Due, Inc., priority 2020, published 2023)

Test system: STING pathway
Experiment: STING reporter assay: luciferase reporter activity in THP1-Dual KO-IFNAR2 cells activated with 2'3'cGAMP
Type: cell-based
Conditions: Homo sapiens, 2'3'cGAMP 15 μM, 24 h, read-out: hSTING EC50
Procedure, shortened: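 Luciferase secreted into the supernatant (QUANTI-Luc Plus read-out) was measured after 24 h at 37 °C. This was in THP1-Dual KO-IFNAR2 cells given test compounds (0.0017-100 μM final) plus Lipofectamine-transfected 2′3′cGAMP at 15 μM final; EC50 was then derived.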

With `O=C(Nc1c[nH]c2cc(F)c(F)cc12)c1ccc(C2(O)CCC(F)(F)CC2)nc1` [Compound 250, 6-(4,4-difluoro-1-hydroxycyclohexyl)-N-(5,6-difluoro-1H-indol-3-yl)nicotinamide] as the compound, how does the EC50 read?
Its EC50 is 1000 to 5000 nM.

For `O=C(Nc1c[nH]c2cc(F)c(F)cc12)c1ccnc(C(O)C(F)(F)F)c1` (stereo not drawn) [Compound 235, N-(5,6-difluoro-1H-indol-3-yl)-2-(2,2,2-trifluoro-1-hydroxyethyl)isonicotinamide], which EC50 is on record?
Its EC50 is 5000 to 100000 nM.

With `O=C(Nc1c[nH]c2cc(F)c(F)cc12)c1ccc(OCC2CC2)c(Cl)c1` [Compound 195, 3-chloro-4-(cyclopropylmethoxy)-N-(5,6-difluoro-1H-indol-3-yl)benzamide] as the compound, how does the EC50 read?
Its EC50 is 200 to 1000 nM.

`COCCNc1cc(C(=O)Nc2c[nH]c3cc(F)c(F)cc23)ccc1C(F)(F)F` [Compound 236, N-(5,6-difluoro-1H-indol-3-yl)-3-((2-methoxyethyl)amino)-4-(trifluoromethyl)benzamide] was tested. Which EC50 did it give?
The EC50 was 200 to 1000 nM.

`COCCC1CCN(c2ncc(C(=O)Nc3c[nH]c4cc(F)c(F)cc34)cc2Cl)CC1` [Compound 163, 5-chloro-N-(5,6-difluoro-1H-indol-3-yl)-6-(4-(2-methoxyethyl)piperidin-1-yl)nicotinamide] was tested. Which EC50 did it give?
The EC50 was 40 to 200 nM.

How did the EC50 turn out when `CCC(O)c1cc(C(=O)Nc2c[nH]c3cc(F)c(F)cc23)ccn1` (stereo not drawn) [Compound 241, N-(5,6-difluoro-1H-indol-3-yl)-2-(1-hydroxypropyl)isonicotinamide] was run?
The EC50 was 5000 to 100000 nM.

For `O=C(Nc1c[nH]c2cc(F)c(F)cc12)c1cccc(OC(F)F)c1` [Compound 121, N-(5,6-difluoro-1H-indol-3-yl)-3-(difluoromethoxy)benzamide], which EC50 is on record?
The EC50 was 1000 to 5000 nM.

Which EC50 does the source give for `O=C(Nc1c[nH]c2cc(F)c(F)cc12)c1ccc(CN2CC(F)C2)c(F)c1` [Compound 260, N-(5,6-difluoro-1H-indol-3-yl)-3-fluoro-4-((3-fluoroazetidin-1-yl)methyl)benzamide] here?
Its EC50 is 200 to 1000 nM.

With `COCCOc1cc(C(=O)Nc2c[nH]c3cc(F)c(F)cc23)ccc1C(F)(F)F` [Compound 232, N-(5,6-difluoro-1H-indol-3-yl)-3-(2-methoxyethoxy)-4-(trifluoromethyl)benzamide] as the compound, how does the EC50 read?
The EC50 was 200 to 1000 nM.

For `C[C@H](c1ccc(C(=O)Nc2c[nH]c3cc(F)c(F)cc23)cc1F)N1CC(F)(F)C1` (single isomer, unassigned) [Compound 245, (R or S)—N-(5,6-difluoro-1H-indol-3-yl)-4-(1-(3,3-difluoroazetidin-1-yl)-1l3-ethyl)-3-fluorobenzamide], which EC50 is on record?
Its EC50 is 200 to 1000 nM.

How did the EC50 turn out when `Cc1cc(C(=O)Nc2c[nH]c3cc(F)c(F)cc23)cnc1NCCCC(F)(F)F` [Compound 191, N-(5,6-difluoro-1H-indol-3-yl)-5-methyl-6-((4,4,4-trifluorobutyl)amino)nicotinamide] was run?
The EC50 was 200 to 1000 nM.

How did the EC50 turn out when `CCOc1c(F)ccc(C(=O)Nc2c[nH]c3cc(F)c(F)cc23)c1F` [Compound 198, N-(5,6-difluoro-1H-indol-3-yl)-3-ethoxy-2,4-difluorobenzamide] was run?
Its EC50 is 200 to 1000 nM.

With `O=C(Nc1c[nH]c2cc(F)c(F)cc12)c1ccc(OCC(F)(F)F)cc1Cl` [Compound 122, 2-chloro-N-(5,6-difluoro-1H-indol-3-yl)-4-(2,2,2-trifluoroethoxy)benzamide] as the compound, how does the EC50 read?
The EC50 was 200 to 1000 nM.

How did the EC50 turn out when `CCC1Cc2ccc(C(=O)Nc3c[nH]c4cc(F)c(F)cc34)cc2C1` (stereo not drawn) [Compound 261, N-(5,6-difluoro-1H-indol-3-yl)-2-ethyl-2,3-dihydro-1H-indene-5-carboxamide] was run?
The EC50 was 200 to 1000 nM.

With `O=C(Nc1c[nH]c2cc(F)c(F)cc12)c1cccc(NCCCC(F)(F)F)n1` [Compound 277, N-(5,6-difluoro-1H-indol-3-yl)-6-((4,4,4-trifluorobutyl)amino)picolinamide] as the compound, how does the EC50 read?
The EC50 was 5000 to 100000 nM.

For `O=C(Nc1c[nH]c2cc(F)ccc12)c1ccc(OCCCC(F)(F)F)c(F)c1` [Compound 192, 3-fluoro-N-(6-fluoro-1H-indol-3-yl)-4-(4,4,4-trifluorobutoxy)benzamide], which EC50 is on record?
The EC50 was 200 to 1000 nM.

How did the EC50 turn out when `COCc1ccc(-n2cc(-c3ccc4[nH]cc(NC(=O)c5ccc(OCCCC(F)(F)F)cc5)c4c3)cn2)cc1` [Compound 162, N-(5-(1-(4-(methoxymethyl)phenyl)-1H-pyrazol-4-yl)-1H-indol-3-yl)-4-(4,4,4-trifluorobutoxy)benzamide] was run?
The EC50 was 40 to 200 nM.

With `O=C(Nc1c[nH]c2cc(F)c(F)cc12)c1ccnc(NCCCC(F)(F)F)n1` [Compound 164, N-(5,6-difluoro-1H-indol-3-yl)-2-((4,4,4-trifluorobutyl)amino)pyrimidine-4-carboxamide] as the compound, how does the EC50 read?
The EC50 was 1000 to 5000 nM.

For `N#Cc1ccc2c(NC(=O)c3ccc(OCCCC(F)(F)F)c(F)c3)c[nH]c2c1` [Compound 104, N-(6-cyano-1H-indol-3-yl)-3-fluoro-4-(4,4,4-trifluorobutoxy)benzamide], which EC50 is on record?
Its EC50 is 1000 to 5000 nM.

For `COCCOc1cccc(C(=O)Nc2c[nH]c3cc(F)c(F)cc23)c1` [Compound 194, N-(5,6-difluoro-1H-indol-3-yl)-3-(2-methoxyethoxy)benzamide], which EC50 is on record?
The EC50 was 200 to 1000 nM.

For `O=C(Nc1c[nH]c2cc(F)c(F)cc12)c1ccc(OCC(F)F)cc1` [Compound 174, N-(5,6-difluoro-1H-indol-3-yl)-4-(2,2-difluoroethoxy)benzamide], which EC50 is on record?
Its EC50 is 200 to 1000 nM.

How did the EC50 turn out when `O=C(Nc1c[nH]c2cc(F)c(F)cc12)c1cnc(C2CC(F)(F)C2)c(Cl)c1` [Compound 240, 5-chloro-N-(5,6-difluoro-1H-indol-3-yl)-6-(3,3-difluorocyclobutyl)nicotinamide] was run?
Its EC50 is 200 to 1000 nM.

Which EC50 does the source give for `O=C(Nc1c[nH]c2cc(F)c(F)cc12)c1ccc(OC(F)F)cn1` [Compound 270, N-(5,6-difluoro-1H-indol-3-yl)-5-(difluoromethoxy)pyridine-2-carboxamide] here?
Its EC50 is 5000 to 100000 nM.

Which EC50 does the source give for `O=C(Nc1c[nH]c2cc(F)c(Cl)cc12)c1ccc(C2(O)CCC(F)(F)CC2)cc1` [Compound 259, N-(5-chloro-6-fluoro-1H-indol-3-yl)-4-(4,4-difluoro-1-hydroxycyclohexyl)benzamide] here?
Its EC50 is 200 to 1000 nM.

`O=C(Nc1c[nH]c2cc(F)c(F)cc12)c1ccc(OC2COC2)cc1` [Compound 269, N-(5,6-difluoro-1H-indol-3-yl)-4-(oxetan-3-yloxy)benzamide] was tested. Which EC50 did it give?
The EC50 was 1000 to 5000 nM.

How did the EC50 turn out when `COCCO[C@@H]1CCN(c2ncc(C(=O)Nc3c[nH]c4cc(F)c(F)cc34)cc2C)C1` [Compound 184, (R)-N-(5,6-difluoro-1H-indol-3-yl)-6-(3-(2-methoxyethoxy)pyrrolidin-1-yl)-5-methylnicotinamide] was run?
The EC50 was 1000 to 5000 nM.

For `O=C(Nc1c[nH]c2cc(F)c(F)cc12)c1ccc(C2CCC(F)(F)CC2)cc1` [Compound 158, N-(5,6-difluoro-1H-indol-3-yl)-4-(4,4-difluorocyclohexyl)benzamide], which EC50 is on record?
The EC50 was 40 to 200 nM.

For `O=C(Nc1c[nH]c2cc(F)c(F)cc12)c1ccc(OC(F)(F)C(F)F)cc1` [Compound 268, N-(5,6-difluoro-1H-indol-3-yl)-4-(1,1,2,2-tetrafluoroethoxy)benzamide], which EC50 is on record?
The EC50 was 200 to 1000 nM.

How did the EC50 turn out when `O=C(Nc1c[nH]c2cc(F)c(F)cc12)c1ccc(N2CCC(F)(F)CC2)nc1` [Compound 159, N-(5,6-difluoro-1H-indol-3-yl)-6-(4,4-difluoropiperidin-1-yl)nicotinamide] was run?
The EC50 was 40 to 200 nM.

With `Cc1cc(OC(F)(F)F)cc(C(=O)Nc2c[nH]c3cc(F)c(F)cc23)c1` [Compound 119, N-(5,6-difluoro-1H-indol-3-yl)-3-methyl-5-(trifluoromethoxy)benzamide] as the compound, how does the EC50 read?
The EC50 was 200 to 1000 nM.

For `O=C(Nc1c[nH]c2cc(F)c(F)cc12)c1ccnc(OC(F)F)c1` [Compound 106, N-(5,6-difluoro-1H-indol-3-yl)-2-(difluoromethoxy)pyridine-4-carboxamide], which EC50 is on record?
The EC50 was 200 to 1000 nM.

For `O=C(Nc1c[nH]c2cc(F)c(F)cc12)c1ccc(C2CC(F)(F)C2)cc1` [Compound 108, N-(5,6-difluoro-1H-indol-3-yl)-4-(3,3-difluorocyclobutyl)benzamide], which EC50 is on record?
Its EC50 is 200 to 1000 nM.

How did the EC50 turn out when `O=C(Nc1c[nH]c2ccc(-c3cnn(-c4cccc(C5CC5)c4)c3)cc12)c1ccc(OCCCC(F)(F)F)cc1` [Compound 201, N-(5-(1-(3-cyclopropylphenyl)-1H-pyrazol-4-yl)-1H-indol-3-yl)-4-(4,4,4-trifluorobutoxy)benzamide] was run?
Its EC50 is 200 to 1000 nM.

Which EC50 does the source give for `O=C(Nc1c[nH]c2cc(F)c(F)cc12)c1ccc(OC2CC(F)(F)C2)c(F)c1` [Compound 149, N-(5,6-difluoro-1H-indol-3-yl)-4-(3,3-difluorocyclobutoxy)-3-fluorobenzamide] here?
The EC50 was 200 to 1000 nM.

`O=C(Nc1c[nH]c2cc(F)c(F)cc12)c1ccnc(NC2CC(F)(F)C2)c1` [Compound 247, N-(5,6-difluoro-1H-indol-3-yl)-2-((3,3-difluorocyclobutyl)amino)isonicotinamide] was tested. Which EC50 did it give?
The EC50 was 200 to 1000 nM.

For `O=C(Nc1c[nH]c2ccc(Cl)cc12)c1ccc(OCCCC(F)(F)F)c(F)c1` [Compound 153, N-(5-chloro-1H-indol-3-yl)-3-fluoro-4-(4,4,4-trifluorobutoxy)benzamide], which EC50 is on record?
The EC50 was 200 to 1000 nM.

For `O=C(Nc1c[nH]c2cc(F)c(F)cc12)c1cnc(NCCC(F)(F)F)c(Cl)c1` [Compound 239, 5-chloro-N-(5,6-difluoro-1H-indol-3-yl)-6-((3,3,3-trifluoropropyl)amino)nicotinamide], which EC50 is on record?
The EC50 was 200 to 1000 nM.

Which EC50 does the source give for `CC(O)c1cc(C(=O)Nc2c[nH]c3cc(F)c(F)cc23)ccc1C(F)(F)F` (stereo not drawn) [Compound 276, N-(5,6-difluoro-1H-indol-3-yl)-3-(1-hydroxyethyl)-4-(trifluoromethyl)benzamide] here?
Its EC50 is 200 to 1000 nM.

With `O=C(Nc1c[nH]c2cc(F)c(F)cc12)c1cnc(N2CCC(F)(F)CC2)c(F)c1` [Compound 154, N-(5,6-difluoro-1H-indol-3-yl)-6-(4,4-difluoropiperidin-1-yl)-5-fluoronicotinamide] as the compound, how does the EC50 read?
The EC50 was 200 to 1000 nM.
